Reference: patent publication US5428175A (priority 1993, dated 1995)
≈ marks a conversion by molar mass, not a printed value.

Experiments:
Solubility = format: physicochemical
[1] = system: Human epidermoid carcinoma (oral) cell KB; experiment: Cytocidal activity of HS-1 for KB cells (MTT); format: cell-based; conditions: 72 hours, absorption at 540 nm, read-out: TC50 (the source's name)
Method: Human epidermoid carcinoma (oral) cell KB was inoculated into 96-well microplates (4000 cells/200 μl/well) and cultured in DMEM medium (containing 5% FCS) in 5% CO2 at 37° C. for 24 hours. 5 μl of HS-1 solutions in DMSO at various HS-1 concentrations were added to above culture. After the culture incubated for 72 hours, 10 μl of a 2.5 mg/ml MTT solution was added and incubator was continued for a further 4 hours, thus producing formazan. After the addition of 200 μl of DMSO, the absorption at 540 nm was measured using an imunoreader. The cytocidal activity of HS-1 for KB cells was determined from the ratio of the absorption of the compound to the absorption of the control.

[2] = system: Staphylococcus aureus IFO 12732; experiment: Antimicrobial activity, paper disc inhibition zone; format: cell-based; conditions: IFO12732, 40 μg/disc, 8 mm paper disc
Method: (§1) Antimicrobial activity of HS-1 was examined using eleven kinds of bacteria, fungi, and yeasts using paper discs with a diameter of 8 mm, at a concentration of 40 μg/disc. The results are shown in Table 3, wherein the antimicrobial activity of HS-1 is indicated as the diameter of the inhibition zone.

[3] = system: Botrytis cinerea IFO 5365; experiment: Antimicrobial activity, paper disc inhibition zone; format: cell-based; conditions: IFO5365, 40 μg/disc, 8 mm paper disc
Method: as §1

[4] = system: Pseudomonas aeruginosa N-10 (L-form); experiment: Antimicrobial activity, paper disc inhibition zone; format: cell-based; conditions: 40 μg/disc, 8 mm paper disc
Method: as §1

[5] = system: Schizosaccharomyces pombe IFO 0638; experiment: Antimicrobial activity, paper disc inhibition zone; format: cell-based; conditions: IFO0638, 40 μg/disc, 8 mm paper disc
Method: as §1

Bacillus subtilis rec + = experiment: Antimicrobial activity, paper disc inhibition zone; format: cell-based; conditions: 40 μg/disc, 8 mm paper disc; Bacillus subtilis rec + (wild strain)
Method: as §1

Bacillus subtilis rec - = experiment: Antimicrobial activity, paper disc inhibition zone; format: cell-based; conditions: 40 μg/disc, 8 mm paper disc; Bacillus subtilis rec - (repair activity defective strain)
Method: as §1

Escherichia coli BE 1196 = experiment: Antimicrobial activity, paper disc inhibition zone; format: cell-based; conditions: BE1196, 40 μg/disc, 8 mm paper disc
Method: as §1

[6] = system: Xanthomonas citri IFO 3781; experiment: Antimicrobial activity, paper disc inhibition zone; format: cell-based; conditions: IFO3781, 40 μg/disc, 8 mm paper disc
Method: as §1

Escherichia coli AB 1157 = experiment: Antimicrobial activity, paper disc inhibition zone; format: cell-based; conditions: AB1157, 40 μg/disc, 8 mm paper disc
Method: as §1

[7] = system: Mycobacterium phlei IFO 11158; experiment: Antimicrobial activity, paper disc inhibition zone; format: cell-based; conditions: Mycolicibacterium phlei, IFO11158, 40 μg/disc, 8 mm paper disc
Method: as §1

[8] = system: Xanthomonas oryzae IFO 331.2; experiment: microbe, parasite or virus in culture; format: cell-based; conditions: IFO331, read-out: Inhibition zone
[9] = known from the literature; cited from earlier work

Compound | Solubility (Solubility; in dimethyl sulfoxide) | Solubility (Solubility; in methanol) | Solubility (Solubility; in water) | IC50 [1] [µg/mL] | zone of inhibition at 40 µg/disc [2] [mm] | zone of inhibition at 40 µg/disc [3] [mm] | zone of inhibition at 40 µg/disc [4] [mm] | zone of inhibition at 40 µg/disc [5] [mm] | zone of inhibition at 40 µg/disc (Bacillus subtilis rec +) [mm] | zone of inhibition at 40 µg/disc (Bacillus subtilis rec -) [mm] | zone of inhibition at 40 µg/disc (Escherichia coli BE 1196) [mm] | zone of inhibition at 40 µg/disc [6] [mm] | zone of inhibition at 40 µg/disc (Escherichia coli AB 1157) [mm] | zone of inhibition at 40 µg/disc [7] [mm] | zone of inhibition at 40 µg/disc [8] [mm] | antimicrobial and antiprotozoal activities [9]
O=C1N=C(c2c[nH]c3ccccc23)C=C1c1c[nH]c2ccccc12 [HS-1] | Readily soluble | scarcely soluble | insoluble | 0.68 (≈ 2.18 µM) | 0 | 0 | < 10 | 0 | 0 | < 10 | 0 | 0 | 0 | 0 | 11.9 | –
O=C1NC(c2c[nH]c3ccc(O)cc23)=C/C1=C1\C(=O)Nc2ccccc21 [violacein] | – | – | – | – | – | – | – | – | – | – | – | – | – | – | – | known to exhibit antimicrobial and antiprotozoal activities
